Assays:
GluN2C = GluN2C (Homo sapiens (Human), UniProt Q14957); experiment: Two electrode voltage-clamp recordings, single concentration, GluN2C; assay type: cell-based; details: pH 6.9
CYP3A4 = CYP3A4 (Homo sapiens (Human), UniProt P08684); experiment: Cytochrome P450 inhibition (Vivid CYP blue screening kit), CYP3A4; assay type: in vitro ADME; details: 1 μM
Method: Inhibition of CYP2D6 and CYP3A4 was accomplished using recombinant human isoforms and a Vivid CYP blue screening kit (Invitrogen, USA) by incubating 2-fold serial dilutions (9 samples) of the test compound with kit reagents and reaction buffer according to the manufacturer's methods in a 96-well plate. The plate was then incubated at room temperature for 30 min before fluorescence was measured with a plate reader. For these studies, reference standards ketoconazole (CYP3A4) and quinidine (CYP2D6) were used as controls.

[1] = Plasma protein binding, rapid equilibrium dialysis, dog; assay type: in vitro ADME; details: n=1
Method: Plasma protein binding was performed with a rapid equilibrium dialysis (RED) device containing dialysis membrane with a molecular weight cut-off of 8,000 Daltons according to the manufacturer's instructions (ThermoFisher, USA). The plasma samples (pH 7.4) and the test compound solution (1 or 5 μM) or reference standards (Warfarin and Propranolol, 10 μM) were combined (DMSO final conc 0.1%). 300 μL of this spiked plasma sample was added to the sample chamber, and 500 μL of blank PBS buffer (pH 7.4) was added into the buffer chamber. The RED device was sealed with adhesive film and then incubated at 37° C. with shaking at 300 rpm for 4 h. Following incubation, an aliquot (50 μL) was removed from each well (spiked plasma and buffer side) and diluted with equal volume of the corresponding opposite matrix (blank buffer or blank plasma) to nullify the matrix effect, and then extracted for analysis by LC-MS/MS. The amount of free material was determined by:
% Free=(LC-MS/MS peak area of test compound in buffer side/LC-MS/MS peak area of test compound in plasma side)×100%

5-HT1D = 5-HT1D (Homo sapiens (Human), UniProt P28221); experiment: Off-target radioligand binding displacement (NIMH PDSP); details: pH 7.4
Method: (§1) Briefly, the compound was submitted to the NIMH PDSP and screened at a single concentration (10 μM) of test article under equilibrium conditions for ability to displace specific radioligands from binding to their targets expressed in mammalian cell membranes in vitro. Each receptor target was assayed in quadruplicate and the % inhibition of radioligand binding at each target determined at pH 7.4. […]

Alpha2C = Alpha2C (Homo sapiens (Human), UniProt P18825); experiment: as above; details: pH 7.4
Method: as §1

in vivo = details: BALB/c, mouse, plasma
Method: Formulation for pharmacokinetic studies used 2% or 10% N′,N′-dimethylacetamide, 10% propylene glycol, and 30% 2-hydroxypropyl-beta-cyclodextrin in water and a dose volume of 10 mL/kg (all routes of administration).
Briefly, mice were administered a 2 mg/kg or a 5 mg/kg dose (n=3 each) by IP injection (10 mL/kg dose volume) and blood samples collected at 0.08, 0.25, 0.5, 1, 2, 4, 8 and 24 hours post dose in tubes containing sodium heparin on ice. 100 μL of plasma was combined with 50 μL of internal standard (haloperidol, 10 μg/mL) and tubes were then spun at 4000 g for 10 min (4° C.) and plasma transferred to clean tubes and stored at −80° C. until analysis.
Blood samples were collected on ice in sodium heparin tubes at 0.08, 0.25, 0.5, 1, 2, 4, 8, and 24 hours post dose. Samples were prepared and analyzed as described above except here the internal standard was fluconazole (10 μg/mL).

Chain of GluN2C (Q14957 20-1233, other chains not shown): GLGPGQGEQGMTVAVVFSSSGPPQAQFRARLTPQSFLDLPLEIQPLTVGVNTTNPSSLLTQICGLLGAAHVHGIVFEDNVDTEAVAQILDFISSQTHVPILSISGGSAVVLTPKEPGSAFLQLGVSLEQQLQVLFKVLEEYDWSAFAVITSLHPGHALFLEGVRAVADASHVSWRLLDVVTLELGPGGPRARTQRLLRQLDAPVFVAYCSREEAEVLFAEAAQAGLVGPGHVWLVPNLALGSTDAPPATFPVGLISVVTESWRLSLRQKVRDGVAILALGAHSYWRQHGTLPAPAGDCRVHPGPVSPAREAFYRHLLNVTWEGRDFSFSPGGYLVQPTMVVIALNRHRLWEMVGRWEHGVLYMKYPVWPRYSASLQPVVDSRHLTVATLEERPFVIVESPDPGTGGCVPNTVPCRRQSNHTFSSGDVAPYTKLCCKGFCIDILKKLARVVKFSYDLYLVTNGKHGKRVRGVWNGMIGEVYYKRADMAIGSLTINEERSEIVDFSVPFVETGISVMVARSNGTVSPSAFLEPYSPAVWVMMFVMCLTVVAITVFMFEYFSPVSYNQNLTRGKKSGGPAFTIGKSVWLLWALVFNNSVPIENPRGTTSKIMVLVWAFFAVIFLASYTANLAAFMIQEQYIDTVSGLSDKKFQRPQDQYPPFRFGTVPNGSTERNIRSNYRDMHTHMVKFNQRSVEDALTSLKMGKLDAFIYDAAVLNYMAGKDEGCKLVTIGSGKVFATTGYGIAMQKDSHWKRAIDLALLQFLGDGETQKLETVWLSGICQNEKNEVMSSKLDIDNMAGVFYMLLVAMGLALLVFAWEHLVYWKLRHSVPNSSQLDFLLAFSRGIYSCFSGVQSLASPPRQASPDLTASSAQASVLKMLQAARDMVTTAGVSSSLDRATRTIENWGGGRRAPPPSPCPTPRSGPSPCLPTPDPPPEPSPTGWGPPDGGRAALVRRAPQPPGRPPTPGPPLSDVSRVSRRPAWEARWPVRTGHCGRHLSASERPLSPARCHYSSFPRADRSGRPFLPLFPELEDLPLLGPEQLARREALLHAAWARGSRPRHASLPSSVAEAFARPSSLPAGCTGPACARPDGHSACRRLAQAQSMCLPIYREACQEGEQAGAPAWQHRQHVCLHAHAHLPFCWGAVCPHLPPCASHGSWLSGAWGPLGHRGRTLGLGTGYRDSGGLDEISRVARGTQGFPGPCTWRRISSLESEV
Chain of CYP3A4 (P08684 whole entry, canonical isoform): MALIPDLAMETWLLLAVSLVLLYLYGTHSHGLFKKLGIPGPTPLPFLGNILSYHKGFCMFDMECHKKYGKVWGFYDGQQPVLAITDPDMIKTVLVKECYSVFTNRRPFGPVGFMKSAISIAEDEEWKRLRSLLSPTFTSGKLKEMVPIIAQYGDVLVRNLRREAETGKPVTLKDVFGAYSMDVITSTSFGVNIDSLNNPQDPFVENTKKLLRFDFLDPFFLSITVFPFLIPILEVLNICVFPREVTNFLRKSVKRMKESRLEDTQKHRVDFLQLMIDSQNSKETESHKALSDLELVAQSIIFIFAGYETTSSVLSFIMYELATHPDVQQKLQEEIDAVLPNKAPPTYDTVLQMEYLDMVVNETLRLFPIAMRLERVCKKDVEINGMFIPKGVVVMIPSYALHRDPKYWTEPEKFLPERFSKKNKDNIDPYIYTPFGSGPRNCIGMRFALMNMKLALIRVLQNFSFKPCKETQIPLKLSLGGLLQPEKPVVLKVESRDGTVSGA
Chain of Alpha2C (P18825 whole entry): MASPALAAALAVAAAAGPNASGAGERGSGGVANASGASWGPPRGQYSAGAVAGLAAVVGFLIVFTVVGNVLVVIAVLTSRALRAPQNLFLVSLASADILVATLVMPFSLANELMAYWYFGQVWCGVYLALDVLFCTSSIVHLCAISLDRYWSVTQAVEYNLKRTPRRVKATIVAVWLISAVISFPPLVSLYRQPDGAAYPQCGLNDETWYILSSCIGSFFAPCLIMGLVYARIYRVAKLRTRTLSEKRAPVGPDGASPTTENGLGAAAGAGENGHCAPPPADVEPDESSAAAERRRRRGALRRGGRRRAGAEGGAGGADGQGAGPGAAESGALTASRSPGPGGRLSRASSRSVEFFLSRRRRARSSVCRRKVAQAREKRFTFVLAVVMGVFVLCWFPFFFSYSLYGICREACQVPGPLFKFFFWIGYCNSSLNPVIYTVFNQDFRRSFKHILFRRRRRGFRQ
Chain of 5-HT1D (P28221 whole entry, species assumed): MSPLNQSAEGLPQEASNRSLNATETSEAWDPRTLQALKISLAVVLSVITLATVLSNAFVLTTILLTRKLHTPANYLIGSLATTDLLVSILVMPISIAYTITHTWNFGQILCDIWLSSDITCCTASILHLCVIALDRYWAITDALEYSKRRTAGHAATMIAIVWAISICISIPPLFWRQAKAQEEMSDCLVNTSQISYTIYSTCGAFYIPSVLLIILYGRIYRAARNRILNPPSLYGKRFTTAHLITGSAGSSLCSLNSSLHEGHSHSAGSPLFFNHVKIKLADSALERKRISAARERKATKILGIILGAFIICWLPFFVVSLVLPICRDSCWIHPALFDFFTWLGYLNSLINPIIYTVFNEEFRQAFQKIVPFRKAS

- off-target inhibition against GluN2C (GluN2C; 3 μM): no noticeable off-target inhibition
- GluN2C % residual (GluN2C; % current remaining after 3 μM compound): 100.1 (pH 6.9) %
- inhibition of CYP3A4 (CYP3A4): did not inhibit
- bound to dog plasma proteins [1]: 98.2%
- Ki (5-HT1D): 2.29 µM
- Ki (Alpha2C): 3.09 µM
- AUC(0-t) (in vivo; iv, 3 mg/kg): 17800 ng·h/mL
- Cmax (in vivo; iv, 3 mg/kg): 2350 ng/mL
- Tmax (in vivo; iv, 3 mg/kg): 4.8 min
- Vd (in vivo; iv, 3 mg/kg): 1.59 L/kg
- clearance (in vivo; iv, 3 mg/kg): 2.44 mL/min/kg
- half-life (in vivo; iv, 3 mg/kg): 514 min
- bioavailability (in vivo; oral, 10 mg/kg): 75.7%
- AUC(0-inf) (in vivo; po, 10 mg/kg): 49500 ng·h/mL
- AUC(0-t) (in vivo; po, 10 mg/kg): 45000 ng·h/mL
- Cmax (in vivo; po, 10 mg/kg): 3600 ng/mL
- Tmax (in vivo; po, 10 mg/kg): 60 min
- half-life (in vivo; po, 10 mg/kg): 424 min
- AUC(0-inf) (in vivo; male, ip, 2 mg/kg): 5690 ng·h/mL
- AUC(0-t) (in vivo; male, ip, 2 mg/kg): 4750 ng·h/mL
- Cmax (in vivo; male, ip, 2 mg/kg): 581 ng/mL
- Tmax (in vivo; male, ip, 2 mg/kg): 30 min
- half-life (in vivo; male, ip, 2 mg/kg): 594 min
- AUC(0-inf) (in vivo; male, ip, 5 mg/kg): 13100 ng·h/mL
- AUC(0-t) (in vivo; male, ip, 5 mg/kg): 11800 ng·h/mL
- Cmax (in vivo; male, ip, 5 mg/kg): 1430 ng/mL
- Tmax (in vivo; male, ip, 5 mg/kg): 30 min
- half-life (in vivo; male, ip, 5 mg/kg): 450 to 594 min
SMILES: O=C1CCc2cc(OC[C@H](O)CN3CCN(c4ccc(C(F)(F)F)cc4)CC3)ccc2N1 [NP10679]

— US20240360091A1, “GLUN2B-SUBUNIT SELECTIVE ANTAGONISTS OF THE N-METHYL-D-ASPARTATE RECEPTORS WITH ENHANCED POTENCY AT ACIDIC PH” (Emory University, priority 2021, published 2024)
